PubChem BioAssay AID2060599 (Molecular Pharmacology Branch, DTP, NCI, 2025)

System: 817829-284-R-J1-PDC complex spheroids, viability
Assay: Anticancer human tumor 817829-284-R-J1-PDC patient-derived colon adenocarcinoma cell line growth inhibition [CLK]
Conditions: for IC50: curve of first compound; for viability, T/C: stronger effect = lower value
Procedure, shortened: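 Patient-derived tumor cells grown as complex spheroids with HUVEC endothelial cells and mesenchymal stem cells, treated with drug combinations. Concentrations descend in half-log steps from near clinical Cmax, or from 10 microM if Cmax unknown.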
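Further: spheroids exposed to the agents for seven days before readout.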

CC1COCCN1c1cc(C2(S(C)(=N)=O)CC2)nc(-c2ccnc3[nH]ccc23)n1 (configuration not stated) + CN1CCN(c2cc(C(=O)Nc3cc4cc(-c5cnn(C)c5)ccc4cn3)ccn2)CC1
IC50 (second compound 0.0316 µM): 84.3 nM
IC50 (second compound 0.1 µM): < 31.6 nM
IC50 (second compound 0.316 µM): < 31.6 nM
IC50 (second compound 1 µM): < 31.6 nM
IC50 (second compound 3.16 µM): < 31.6 nM
IC50 (second compound 10 µM): < 31.6 nM
viability, T/C (second compound 0.0316 µM, first compound 0.0316 µM): 57.2%
viability, T/C (second compound 0.0316 µM, first compound 0.1 µM): 48.3%
viability, T/C (second compound 0.0316 µM, first compound 0.316 µM): 34.6%
viability, T/C (second compound 0.0316 µM, first compound 1 µM): 20.3%
viability, T/C (second compound 0.0316 µM, first compound 3.16 µM): 6.12%
viability, T/C (second compound 0.0316 µM, first compound 10 µM): 3.77%
viability, T/C (second compound 0.1 µM, first compound 0.0316 µM): 14.8%
viability, T/C (second compound 0.1 µM, first compound 0.1 µM): 15.1%
viability, T/C (second compound 0.1 µM, first compound 0.316 µM): 11.9%
viability, T/C (second compound 0.1 µM, first compound 1 µM): 8.16%
viability, T/C (second compound 0.1 µM, first compound 3.16 µM): 4.67%
viability, T/C (second compound 0.1 µM, first compound 10 µM): 3.28%
viability, T/C (second compound 0.316 µM, first compound 0.0316 µM): 1.94%
viability, T/C (second compound 0.316 µM, first compound 0.1 µM): 2.26%
viability, T/C (second compound 0.316 µM, first compound 0.316 µM): 1.9%
viability, T/C (second compound 0.316 µM, first compound 1 µM): 2.08%
viability, T/C (second compound 0.316 µM, first compound 3.16 µM): 1.38%
viability, T/C (second compound 0.316 µM, first compound 10 µM): 0.6%
viability, T/C (second compound 1 µM, first compound 0.0316 µM): 0.08%
viability, T/C (second compound 1 µM, first compound 0.1 µM): 0.15%
viability, T/C (second compound 1 µM, first compound 0.316 µM): 0.11%
viability, T/C (second compound 1 µM, first compound 1 µM): 0.08%
viability, T/C (second compound 1 µM, first compound 3.16 µM): 0.07%
viability, T/C (second compound 1 µM, first compound 10 µM): 0.08%
viability, T/C (second compound 3.16 µM, first compound 0.0316 µM): 0.53%
viability, T/C (second compound 3.16 µM, first compound 0.1 µM): 0.17%
viability, T/C (second compound 3.16 µM, first compound 0.316 µM): 0.15%
viability, T/C (second compound 3.16 µM, first compound 1 µM): 0.14%
viability, T/C (second compound 3.16 µM, first compound 3.16 µM): 0.14%
viability, T/C (second compound 3.16 µM, first compound 10 µM): 0.1%
viability, T/C (second compound 10 µM, first compound 0.0316 µM): 0.09%
viability, T/C (second compound 10 µM, first compound 0.1 µM): 0.12%
viability, T/C (second compound 10 µM, first compound 0.316 µM): 0.13%
viability, T/C (second compound 10 µM, first compound 1 µM): 0.13%
viability, T/C (second compound 10 µM, first compound 3.16 µM): 0.15%
viability, T/C (second compound 10 µM, first compound 10 µM): 0.14%
